Data reported in patent US7189851B2, “Condensed heterocyclic compounds as calcitonin agonists” (SmithKline Beecham Corporation, priority 2002, dated 2007).

Columns and labels:
[1] = molecular target: T1, human calcitonin-2 receptor (hCT2R) (Homo sapiens, UniProt P30988); assay: HCT2R CRE-luc reporter assay; assay type: cell-based; conditions: agonist activity; CHO-6CRE-luciferase cells co-transfected with hCT2R
T1 construct: expressed in transfected cells; host or cells: Chinese hamster ovary (CHO) cells co-transfected with a 6CRE-luciferase reporter; receptor cDNA cloned from the MCF7 cell line
T1 sequence (P30988 25-474): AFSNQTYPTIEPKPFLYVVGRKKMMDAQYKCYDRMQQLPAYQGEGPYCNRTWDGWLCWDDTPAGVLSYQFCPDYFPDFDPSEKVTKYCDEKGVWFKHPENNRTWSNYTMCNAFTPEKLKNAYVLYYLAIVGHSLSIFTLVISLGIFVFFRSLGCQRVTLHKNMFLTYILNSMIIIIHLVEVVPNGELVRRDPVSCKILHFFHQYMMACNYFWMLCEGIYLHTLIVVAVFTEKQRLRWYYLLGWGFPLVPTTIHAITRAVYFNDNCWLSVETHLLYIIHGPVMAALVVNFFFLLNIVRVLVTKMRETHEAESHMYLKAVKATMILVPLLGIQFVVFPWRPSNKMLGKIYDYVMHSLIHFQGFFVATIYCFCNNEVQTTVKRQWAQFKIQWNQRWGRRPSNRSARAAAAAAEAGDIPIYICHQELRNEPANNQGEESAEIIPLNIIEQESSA

[2] = tested on: Human osteoclasts; assay: Human osteoclast assay in vitro (bone resorption); assay type: cell-based; parameters: key: Active: Human osteoclast: Significant inhibition of bone resorption in the absence of toxicity, relative to vehicle-treated controls; conditions: inhibition of bone resorption on cortical bone slices, 3 to 7 days
Description: Human osteoclasts were differentiated from peripheral blood cells using methods adapted from published protocols [Journal of Experimental Medicine 188(5):997–1001, 1998. TRANCE is necessary and sufficient for osteoblast-mediated activation of bone resorption in osteoclasts. K Fuller, B Wong, S Fox, Y Choi, and T J Chambers]. Human mononuclear cells were incubated on bone slices in M_CSF (30 ng/ml) and RANKL (TRANCE, 30 ng/ml) for 10 days. Differentiated osteoclasts were identified using an osteoclast-specific monoclonal antibody. Osteoclasts with test compounds or vehicle were incubated on cortical bone slices for an additional 3 to 7 days to measure bone resorption. In addition to bone resorption, toxicity and osteoclastogenesis were observed after compound treatments. A positive response was defined as significant inhibition of bone resorption without toxicity.

[3] = tested on: neonatal rat calvaria; assay: Rat calvaria assay in vitro (bone resorption); assay type: cell-based; parameters: key: Active: Rat calvaria: Concentration-dependent inhibition of bone resorption with efficacy equivalent to calcitonin 1 ng/ml; conditions: PTH 10 ng/ml stimulated bone resorption; calcium and deoxypyridinoline in supernatant
Description: Bone resorption of neonatal rat cavarial chips was measured using methods adapted from published protocols [Ulf H, Lemer Modifications of the Mouse Calvarial Technique Improve the Responsiveness to Stimulators of Bone Resorption. Journal of Bone and Mineral Research Vol 2, No. 5, 1987]. Resorption was measured by quantification of calcium in the supernatant by a calorimetric assay and of deoxypyridinoline in the supernatant by ELISA. Deoxypyridinoline is released as a by product of collagen degradation by the osteoclast
Calvaria were surgically removed from 2–3 day old Wistar rats and placed in a sterile tube containing BGJb media (Fitton-Jackson Modification)—GIBCO BRL with penicillin (10 U/ml)/streptomycin (10 μg/ml). Calvaria were washed twice with fresh media, trimmed of excess tissue, and placed in fresh media. Calvaria were uniformly sectioned and placed in the wells of a tissue culture plate in 1 ml of BGJb/P/S with 1 mg/ml BSA. Calvaria were incubated for 24 hours at 37° C., 5% CO2 before treatments. Media was aspirated and replaced with 1 ml of fresh media containing PTH 10 ng/ml . Unstimulated wells contained media alone. Test compounds or calcitonin (1 ng/ml) were added. Compounds or calcitonin were added again on days 2 and 3, with no medium or PTH additions. Upon completion of the assay, the media was collected and stored at −20° C. until analysis was performed. Calvaria were air-dried for several days, and dry weight was quantified.
Deoxypyridinoline ELISA: Supernatants were evaluated for deoxypyridinoline crosslinks according to kit manufacturer instructions. SoftMax software was used to evaluate ELISA data from a 96-well format to generate a standard curve. Sample values were extrapolated from this standard curve. Extrapolated sample values were imported into a Microsoft Excel to normalize sample values to dried calvarial weight. Data was expressed as nanomolar DPD/mg calvaria.
Calcium analysis: Calcium determinations were made using Arsenazo III reagent from Sigma Diagnostics No. 588. Procedure followed as described by manufacturer in kit instructions. Data was imported from plate reader into Microsoft® Excel® and calcium concentrations were calculated as follows: [Asample/Astandard]×Concentration of standard=mg/dL Calcium
Sample values were normalized to dried calvarial weight and expressed as mg/dL calcium per mg calvaria.

[4] = tested on: Thyroid-parathyroidectomized (TPTX) rats; assay: Rat TPTX assay in vivo (PTH-induced elevation of serum calcium); parameters: key to TPTX rat in vivo: Active: TPTX (Thyroid- parathyroidectomized) rat: Significant inhibition of bone resorption reflected in serum calcium levels relative to PTH + Vehicle controls; conditions: for TPTX rat in vivo: serum calcium, PTH-infused TPTX rats, vs PTH + Vehicle
Excerpt: Thyroid-parathyroidectomized (TPTX) rats were used to determine the effects of compounds on PTH-induced elevation of serum calcium in vivo. The thyroid and parathyroid glands of male CD rats were removed under anesthesia and subcutaneous pumps containing human parathyroid hormone (hPTH 1–34) were implanted two to five days after TPTX. […] PTH was delivered at a rate of 30 micrograms/kg/hour. PTH causes significant elevations of serum calcium in TPTX rats given no other treatments. Rats were treated with vehicle, test compounds at various doses or calcitonin 16 units/kg SC. […] Serurn calcium was measured at baseline and every two hours up to six hours. Averaged group responses at each time point were compared using Analysis of Variance (ANOVA).

CCOC(=O)c1c(CCc2ccc(C(F)(F)F)cc2)nc2c(c1-c1ccc(C(=O)NCc3cccnc3)o1)C(=O)N1CCC[C@@H]21 [Example 12, Ethyl(9aS)-5-oxo-4-(5-{[(3-pyridinylmethyl)amino]carbonyl}-2-furyl)-2-{2-[4-(trifluoromethyl)phenyl]ethyl}-7,8,9,9a-tetrahydro-5H-pyrido[2,3-a]pyrrolyzine-3-carboxylate]
EC50 [1]: 0.01 to 0.1 µM | Human osteoclast in vitro [2]: Active | Rat calvaria in vitro [3]: Active | TPTX rat in vivo [4]: Active

CCOC(=O)c1c(CCc2ccc(OC)cc2)nc2c(c1-c1ccc(C(=O)NCc3ccccn3)cc1)C(=O)N1CCC[C@H]1C2 [Example 57, Ethyl (9aS)-2-[2-(4-methoxyphenyl)ethyl]-5-oxo-4-(4-{[(2-pyridinylmethyl)amino]carbonyl}phenyl)-5,7,8,9,9a,10-hexahydropyrrolo[1,2-g][1,6]naphthyridine-3-carboxylate]
EC50 [1]: ≥ 1 µM | melting point: > 200 °C

CCOC(=O)c1c(CCc2ccc(C(F)(F)F)cc2)nc2c(c1-c1ccc(S(=O)(=O)NCc3ccco3)cc1)C(=O)N1CCC[C@@H]21 [Example 2, Ethyl (9aS)-4-(4-{[(2-furylmethyl)amino]sulfonyl}phenyl)-5-oxo-2-{2-[4-(trifluoromethyl)phenyl]ethyl}-7,8,9,9a-tetrahydro-5H-pyrido[2,3-a]pyrrolizine-3-carboxylate]
EC50 [1]: 0.1 to 1 µM | melting point: 181 to 182 °C

CCOC(=O)c1c(CCc2ccc(C(F)(F)F)cc2)nc2c(c1-c1ccc(C(=O)N[C@H](C)c3ccncc3)cc1)C(=O)N1CCC[C@@H]21 [Example 4, Ethyl (9aS)-5-oxo-4-[4-({[(1R)-1-(4-pyridinyl)ethyl]amino}carbonyl)phenyl]-2-{2-[4-(trifluoromethyl)phenyl]ethyl}-7,8,9,9a-tetrahydro-5H-pyrido[2,3-a]pyrrolizine-3-carboxylate]
EC50 [1]: 0.01 to 0.1 µM | Rat calvaria in vitro [3]: Active | TPTX rat in vivo [4]: Active

CCOC(=O)c1c(CCc2ccc(C(F)(F)F)cc2)nc2c(c1-c1ccc(C(=O)NCc3ccco3)cc1)C(=O)N1CCC[C@@H]21 [Example 11, Ethyl(9aS)-4-(4-{[(2-furylmethyl)amino]carbonyl}phenyl)-5-oxo-2-{2-[4-(trifluoromethyl)phenyl]ethyl}-7,8,9,9a-tetrahydro-5H-pyrido[2,3-a]pyrrolizine-3-carboxylate]
EC50 [1]: ≤ 0.01 µM | Human osteoclast in vitro [2]: Active | Rat calvaria in vitro [3]: Active

CCOC(=O)c1c(CCc2ccc(C(F)(F)F)cc2)nc2c(c1-c1ccc(C(=O)N[C@@H](C)c3ccncc3)cc1)C(=O)N1CCC[C@@H]21 [Example 5, Ethyl (9aS)-5-oxo-4-[4-({[(1S)-1-(4-pyridinyl)ethyl]amino}carbonyl)phenyl]-2-{2-[4-(trifluoromethyl)phenyl]ethyl}-7,8,9,9a-tetrahydro-5H-pyrido[2,3-α]pyrrolizine-3-carboxylate]
EC50 [1]: 0.1 to 1 µM | Rat calvaria in vitro [3]: Active | TPTX rat in vivo [4]: Active | melting point: 158 to 160 °C

CCOC(=O)c1c(CCc2ccc(C(F)(F)F)cc2)nc2c(c1-c1ccc(NC(=O)Nc3ccccc3)cc1)C(=O)N1CCC[C@@H]21 [Example 7, Ethyl (9aS)-4-{4-[(anilinocarbonyl)amino]phenyl}-5-oxo-2-{2-[4-(trifluoromethyl)phenyl]ethyl}-7,8,9,9a-tetrahydro-5H-pyrido[2,3-α]pyrrolizine-3-carboxylate]
EC50 [1]: 0.1 to 1 µM | melting point: 137 to 139 °C

CCOC(=O)c1c(CCc2ccc(F)cc2)nc2c(c1-c1cc(C(=O)NCc3ccc(F)c(F)c3)cs1)C(=O)N1CCC[C@@H]21 [Example 16, Ethyl(9aS)-4-(4-{[(3,4-difluorobenzyl)amino]carbonyl}-2-thienyl)-2-[2-(4-fluorophenyl)ethyl]-5-oxo-7,8,9,9a-tetrahydro-5H-pyrido[2,3-a]pyrrolizine-3-carboxylate]
EC50 [1]: ≤ 0.01 µM | Rat calvaria in vitro [3]: Active | TPTX rat in vivo [4]: Active

CCOC(=O)c1c(CCc2ccc(F)cc2)cc2c(c1-c1ccc(C(=O)NCc3ccco3)cc1)C(=O)N1CCC[C@@H]21 [Example 50, Ethyl (9bS)-8-[2-(4-flurophenyl)ethyl]-6-(4-{[(2-furylmethyl)amino]carbonyl}phenyl)-5oxo-2,3,5,9b-tetrahydro-1H-pyrrolo[2,1-α]isoindole-7-carboxylate]
EC50 [1]: ≥ 1 µM

CC(=O)c1c(CCc2ccc(F)cc2)nc2c(c1-c1ccc(C(=O)NCc3ccco3)cc1)C(=O)N1CCC[C@@H]21 [Example 29, 4-{(9aS)-3-acetyl-2-[2-(4-fluorophenyl)ethyl]-5-oxo-7,8,9,9a-tetrahydro-5H-pyrido[2,3-α]pyrrolizin-4-yl}-N-(2-furylmethyl)benzamide]
EC50 [1]: 0.01 to 0.1 µM

O=C(NCc1ccco1)c1ccc(-c2c(NC(=O)C3CC3)c(CCc3ccc(C(F)(F)F)cc3)nc3c2C(=O)N2CCC[C@@H]32)cc1 [Example 26, 4-((9aS)-3-[(Cyclopropylcarbonyl)amino]-5-oxo-2-{2-[4-(trifluoromethyl)phenyl]ethyl}-7,8,9,9a-tetrahydro-5H-pyrido[2,3-α]pyrrolizin-4-yl)-N-(2-furylmethyl)benzamide]
EC50 [1]: 0.1 to 1 µM

O=C(N[C@@H]1CCc2ccccc21)c1ccc2c(c1)[nH]c(=O)c1c(CCc3ccc(F)cc3)nc3c(c12)C(=O)N1CCC[C@@H]31 [Example 59, (8bS)-N-[(1R)-2,3-dihydro-1H-inden-1-yl]-7-[2-(4-fluorophenyl)ethyl]-6,13-dioxo-5,8b,9,10,11,13-hexahydro-6H-benzo[c]pyrrolizino[2,1-f][2,7]naphthyridine-3-carboxamide]
EC50 [1]: ≤ 0.01 µM

calcitonin [reference compound]
suppression of PTH-induced hypercalcemia ([4]; 16 units/kg SC, TPTX rats): maximal suppression

N#Cc1c(CCc2ccc(C(F)(F)F)cc2)nc2c(c1-c1ccc(C(=O)NCc3ccco3)cc1)C(=O)N1CCC[C@@H]21 [Example 28, 4-((9aS)-3-Cyano-5-oxo-2-{2-[4-(trifluoromethyl)phenyl]ethyl}-7,8,9,9a-tetrahydro-5H-pyrido[2,3-α]pyrrolizin-4-yl)-N-(2-furylmethyl)benzamide]
EC50 [1]: 0.1 to 1 µM
